For assay [1], the target named is T1, HSP47 (Canis lupus familiaris, UniProt C7C419). Conditions: CMP coated 500 ng/well, HSP47 1:4 dilution series from 8 or 10 μM, anti-His-HRP/TMB read-out, four-parameter logistic fit, triplicates.
Experimental: Purified collagen model peptides were coated onto a Nunc MaxiSorp (Thermo Fisher Scientific), 500 ng/well. Plates were washed after 1 h at RT with TBS-T 0.05% and free binding sites were blocked with 1% (w/v) BSA in TBS. […] Assays were either stopped with 10% H2SO4 and absorption measured at 450 nm or continuously monitored at 370 nm every 20 min for 1 h. In latter cases, timepoints showing the highest signal-to-noise ratio were used for analysis. […] Results were analyzed using Gen5 (BioTek) and Origin 2018.
The values shown for ELISA-style binding assays represent the average of triplicates. Data from affinity assays were analyzed using a four-parameter logistic fit function ([44]) in Origin 2018.
The target in assay [2] is T1, HSP47. Particulars: normalized to water at 20 °C.
Experimental: All samples were incubated for 30 min at RT and afterward centrifuged at 42.000 rpm in a ProteomeLab XL-A analytical ultracentrifuge (Beckman Coulter) equipped with a fluorescence detection system (AU-FDS; Aviv Biomedical Inc). In this setup 42.000 rpm translates to 117.552g at the top (r = 59.5 mm) and 142.248g at the bottom (r = 72.0 mm) of the sample cell. Samples were spun in standard 12 mm double-sector epon-filled centerpieces, covered with quartz windows. All measurements were performed in triplicates and key findings repeated three times.
The resulting sedimentation velocity profiles were analyzed using DCDT+ version 2.4.3 software by John Philo ([40]). The buffer density (ρ) and buffer viscosity (η) of the buffer used for data analysis were calculated with [sequence]
In assay [3] the target is T1, HSP47. Conditions: gold-labeled HSP47 200 nM, foldon-CMP 100 nM (2:1); 30 fields of 1 μm2 counted.
Experimental: Briefly, mixed protein solutions were adsorbed to 400 mesh carbon-coated copper grids and stained with 0.75% (w/v) uranyl formate. Specimens were examined in a Philips/FEICM 100 TWIN transmission electron microscope operated at 60 kV accelerating voltage. Images were recorded with a side-mounted Olympus Veleta camera with a resolution of 2048 × 2048 pixels (2k × 2K) and the ITEM acquisitions software.
The mark [4] stands for this setting: read-out: KD determined by curve fittings, Fig. 1D.
Setting [5] is: higher molar ratios of HSP47 (up to 20 μM) to 1 μM ATTO488-labeled CMP.
Setting [6] is: 1–5 μM HSP47 to 1 μM ATTO488-labeled CMP, 20 mM HEPES, 150 mM NaCl pH 7.5.

Values joined by “and” are separate entries in the source; they are usually repeats but may differ in a detail not shown here. Identical values can stand only once. Like-named read-outs stand apart in the source and are kept apart here.

T1 sequence (C7C419 entry or part of it): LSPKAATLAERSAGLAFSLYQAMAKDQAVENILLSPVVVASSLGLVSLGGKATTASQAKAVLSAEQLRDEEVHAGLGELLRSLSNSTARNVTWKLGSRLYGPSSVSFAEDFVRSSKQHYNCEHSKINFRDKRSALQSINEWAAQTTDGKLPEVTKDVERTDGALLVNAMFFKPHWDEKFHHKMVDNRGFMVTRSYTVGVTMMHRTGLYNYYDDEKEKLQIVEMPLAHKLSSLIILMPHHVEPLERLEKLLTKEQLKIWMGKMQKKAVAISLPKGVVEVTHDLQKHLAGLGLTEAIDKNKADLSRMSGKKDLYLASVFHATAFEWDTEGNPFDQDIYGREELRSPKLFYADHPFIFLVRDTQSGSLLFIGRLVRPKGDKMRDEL

In general, Kd refers to the equilibrium constant for the complex coming apart. As for GARGLP, the Kd at HSP47 [1] (setting [4]) turned out to be 24.1 ± 5.4 nM. For the same substance, the “sedimentation coefficient of the HSP47:CMP complex” value (“sedimentation coefficient” for short) at HSP47 [2] (setting [5]) is “even higher sedimentation rates”. At HSP47 [3], the “Stoichiometry, 0 Au / foldon (no HSP47 bound)” value is on record as 52% and the “Stoichiometry, 1 Au / foldon (one HSP47 bound)” value is 46%.

For the substance GPRGFP, the Kd on HSP47 [1] (setting [4]) was 12 ± 1.4 nM. The “sedimentation coefficient” value on HSP47 [2] (setting [6]) is recorded as around 4 S; at HSP47 [2] (setting [5]), “stagnated”. The “Stoichiometry, 0 Au / foldon (no HSP47 bound)” value at HSP47 [3] stood at 54%. The “Stoichiometry, 1 Au / foldon (one HSP47 bound)” value at HSP47 [3] was found to be 45%.

In the case of GPRGPP, the Kd is 36 ± 3 nM at HSP47 [1] (Fig. 1C); 21.7 nM and ~21 nM on HSP47 [1] (setting [4]). For the same substance, the “sedimentation coefficient” value was around 4 S at HSP47 [2] (setting [6]) and around 5 S at HSP47 [2] (setting [5]). The “Stoichiometry, 1 Au / foldon (one HSP47 bound)” value at HSP47 [3] came to 29%. The “Stoichiometry, 2 Au / foldon (two HSP47 bound)” value at HSP47 [3] is on record as 18%.

The values above are taken from PMC8626583, “Collagen’s primary structure determines collagen:HSP47 complex stoichiometry” (The Journal of Biological Chemistry, 2021).
